The results in this text go back to patent US8946187B2, “Materials and methods related to microRNA-21, mismatch repair, and colorectal cancer” (The Ohio State University, priority 2010, dated 2015).

For the assay, the system named is Lovo tumor xenografts. The assay can be described thus: Colorectal cancer xenograft model, 5-FU treatment. The assay is classed as in vivo, nude mice. Particulars: 5-FU 50 mg/kg/day i.p., 5 days per week for 2 weeks; Lovo(MSH2+) vs Lovo(MSH2−). An excerpt:
Lovo-MSH2 positive and Lovo-MSH2 negative cells were stably infected with the pCDH-CMV-MCS-EF1-miRNA expression plasmid containing the full-length miR-21 and the GFP gene under the control of two different promoters (System Biosciences, Mountain View, Calif.). An empty vector was used as control. Pre-miR-21 expression and control constructs were packaged with pPACKH1 Lentivector Packaging Plasmid mix (System Biosciences) in 293-TN packaging cell line. Viruses were concentrated using PEG-It™ Virus Precipitation Solution and titers analyzed using UltraRapid Lentiviral Titer Kit (System Biosciences). Infected cells were selected by FACS analysis (FACS Calibur, Becton Dickinson Immunocytometry Systems). Infection efficiency >90% was verified by fluorescent microscopy and further confirmed by real time PCR for miR-21 expression.
Animal studies were performed according to institutional guidelines. […] Tumor volume was measured at the beginning of treatment and then once a week. The estimated tumor volume (V) was calculated by the following formula: V=W2×L×0.5, where W represents the […] tumor diameter. The individual relative tumor volume (RTV) was calculated as follows RTV=Vx/V1 where Vx is the volume in cubic millimeters at a given time and V1 is the volume at the start of treatment. […]

As to `O=c1[nH]cc(F)c(=O)[nH]1` [5-FU, 5-fluorouracil], the “efficacy of 5-FU treatment on tumor xenografts” value is “more efficacious with Lovo(MSH2+) tumor xenografts compared to Lovo(MSH2−) tumor xenografts”.
